From ChEMBL document CHEMBL4321839, “Structure-activity relationships (SAR) of triazine derivatives: Promising antimicrobial agents” (Eur J Med Chem, 2020)
Converted amounts (≈) assume the structure as drawn.

Assays:
Escherichia coli [1] = assay: Antimicrobial activity multi drug-resistant against Escherichia coli; format: functional
Staphylococcus aureus [2] = assay: Antimicrobial activity methicillin-resistant against Staphylococcus aureus; format: functional
[3] = Cytotoxicity against African green monkey Vero cells incubated for 72 hrs by MTT assay; format: cell-based; details: chlorocebus sabaeus
Klebsiella pneumoniae = assay: Antimicrobial activity against multi drug-resistant Klebsiella pneumoniae assessed as reduction in microbial growth by two-fold serial dilution method; format: functional
Aspergillus niger = assay: Antifungal activity against Aspergillus niger NCIM-620 at 72 hrs by CLSI based alamar blue assay; format: functional; details: NCIM-620, 72 h
Cryptococcus neoformans = assay: Antifungal activity against Cryptococcus neoformans NCIM-3542 at 72 hrs by CLSI based alamar blue assay; format: functional; details: NCIM-3542, 72 h
Candida albicans = assay: Antifungal activity against Candida albicans NCIM-3102 at 18 to 24 hrs by CLSI based alamar blue assay; format: functional
Nakaseomyces glabratus = assay: Antifungal activity against Candida glabrata NCIM-3266 at 18 to 24 hrs by CLSI based alamar blue assay; format: functional
Staphylococcus aureus [4] = assay: Antimicrobial activity against Staphylococcus aureus […] assessed as reduction in microbial growth after 24 to 48 hrs by microdilution susceptibility test; format: functional
Staphylococcus aureus [5] = assay: Antimicrobial activity against methicillin-resistant Staphylococcus aureus clinical isolate MRSA1 assessed as reduction in microbial growth by two-fold serial dilution method; format: functional
Escherichia coli [6] = assay: Antimicrobial activity against Escherichia coli ATCC 25922 assessed as reduction in microbial growth after 24 to 48 hrs by microdilution susceptibility test; format: functional
Escherichia coli [7] = assay: Antimicrobial activity against Escherichia coli MTCC 443 assessed as reduction in microbial growth after 24 to 48 hrs by broth dilution method; format: functional
Escherichia coli [8] = assay: Antimicrobial activity against multi drug-resistant Escherichia coli assessed as reduction in microbial growth after 24 to 48 hrs by microdilution susceptibility test; format: functional
Staphylococcus aureus [9] = assay: Antimicrobial activity against methicillin-resistant Staphylococcus aureus assessed as reduction in microbial growth after 24 to 48 hrs by microdilution susceptibility test; format: functional
Pseudomonas aeruginosa [10] = assay: Antimicrobial activity against Pseudomonas aeruginosa MTCC 1688 assessed as reduction in microbial growth after 24 to 48 hrs by broth dilution method; format: functional
Bacillus subtilis [11] = assay: Antimicrobial activity against Bacillus subtilis NCIM-2063 assessed as zone of inhibition at 5 ug after 24 hrs by disk diffusion method; format: functional; details: NCIM-2063, 24 h, read-out: IZ
Bacillus cereus = assay: Antimicrobial activity against Bacillus cereus NCIM-2156 assessed as zone of inhibition at 5 ug after 24 hrs by disk diffusion method; format: functional; details: NCIM-2156, 24 h, read-out: IZ
Pseudomonas aeruginosa [12] = assay: Antimicrobial activity against Pseudomonas aeruginosa NCIM-2036 assessed as zone of inhibition at 5 ug after 24 hrs by disk diffusion method; format: functional; details: NCIM-2036, 24 h, read-out: IZ
Staphylococcus aureus [13] = assay: Antimicrobial activity against Staphylococcus aureus NCIM-2079 assessed as zone of inhibition at 5 ug after 24 hrs by disk diffusion method; format: functional; details: NCIM-2079, 24 h, read-out: IZ
Pseudomonas aeruginosa [14] = assay: Antimicrobial activity against Pseudomonas aeruginosa NCIM-2036 after 24 hrs by CLSI based broth dilution method; format: functional; details: NCIM-2036, 24 h
Lacticaseibacillus casei = assay: Antibacterial activity against Lactobacillus casei NCIM-2651 assessed as reduction in microbial growth incubated for 24 hrs by broth dilution method; format: functional; details: NCIM-2651, 24 h
Proteus vulgaris = assay: Antimicrobial activity against Proteus vulgaris NCIM-2027 assessed as reduction in microbial growth after 24 hrs by CLSI based broth dilution method; format: functional; details: NCIM-2027, 24 h
Bacillus subtilis [15] = assay: Antimicrobial activity against Bacillus subtilis NCIM-2063 assessed as reduction in microbial growth after 24 hrs by CLSI based broth dilution method; format: functional; details: NCIM-2063, 24 h
Escherichia coli [16] = assay: Antimicrobial activity against Escherichia coli NCIM-2065 assessed as reduction in microbial growth after 24 hrs by CLSI based broth dilution method; format: functional; details: NCIM-2065, 24 h

O=C(O)C1=CC(C2CC2)C2=C(CC(F)C3=NN=C(c4ccc([N+](=O)[O-])cc4)CN32)C1=O (configuration not stated)
MIC (Escherichia coli [1]): 0.25 µg/mL (≈ 0.589 µM) | MIC (Staphylococcus aureus [2]): 0.25 to 8 µg/mL (≈ 0.589 to 18.9 µM)

O=C(N/N=C/c1ccccc1)c1ccc(Nc2nc(N3CCCCC3)nc(N3CCCCC3)n2)cc1
CC50 at 72 h [3]: 250 µg/mL (≈ 516 µM) | MIC (Klebsiella pneumoniae): 50 µg/mL

c1ccc(-c2csc(Nc3nc(N4CCOCC4)nc(N4CCOCC4)n3)n2)cc1
MIC (Aspergillus niger): 0.63 to 5 µg/mL (≈ 1.48 to 11.8 µM) | MIC (Cryptococcus neoformans): 0.63 to 5 µg/mL (≈ 1.48 to 11.8 µM) | MIC (Candida albicans): 0.63 to 5 µg/mL (≈ 1.48 to 11.8 µM) | MIC (Nakaseomyces glabratus): 0.63 to 5 µg/mL (≈ 1.48 to 11.8 µM)

CC1(C)S[C@@H]2[C@H](NC(=O)[C@H](N)c3ccccc3)C(=O)N2[C@H]1C(=O)O [AMPICILLIN]
MIC (Staphylococcus aureus [4]): 12.5 µg/mL | MIC (Staphylococcus aureus [5]): 6.25 µg/mL | MIC (Escherichia coli [6]): 25 µg/mL | MIC (Escherichia coli [7]): 100 µg/mL | MIC (Escherichia coli [8]): > 250 µg/mL | MIC (Staphylococcus aureus [9]): > 250 µg/mL | MIC (Klebsiella pneumoniae): 12.5 µg/mL | MIC (Pseudomonas aeruginosa [10]): 100 µg/mL

S=C(Nc1ccnc2cc(Cl)ccc12)N1CCN(c2nc(Nc3ccc(Br)cc3)nc(Nc3ccc(Br)cc3)n2)CC1
zone of inhibition at 5 µg/disc (Bacillus subtilis [11]): 16 to 17 mm | zone of inhibition at 5 µg/disc (Bacillus cereus): 9 to 17 mm | zone of inhibition at 5 µg/disc (Pseudomonas aeruginosa [12]): 9 to 17 mm | zone of inhibition at 5 µg/disc (Staphylococcus aureus [13]): 16 to 17 mm

CC1=NN(c2ccccc2)C(C)C1Nc1nnc(Sc2nc(Nc3ccc(F)cc3)nc(Nc3ccc(F)cc3)n2)s1 (configuration not stated)
MIC (Pseudomonas aeruginosa [14]): 6.25 µg/mL (≈ 10.4 µM)

Nc1nc(Nc2nc(-c3ccc(Cl)cc3)cs2)nc(Sc2ccccc2)n1
MIC (Lacticaseibacillus casei): 3.12 µg/mL

O=C1CSC(=O)N1c1nc(Nc2cccc(Cl)c2)nc(Nc2cccc(Cl)c2)n1
MIC (Proteus vulgaris): 3.91 µg/mL

OC(Cn1cncn1)(Cn1cncn1)c1ccc(F)cc1F [FLUCONAZOLE]
MIC (Candida albicans): 0.63 µg/mL (≈ 2.06 µM) | MIC (Nakaseomyces glabratus): 0.63 µg/mL (≈ 2.06 µM)

O=C(O)c1ccc(Nc2nc(Cl)nc(N3CCCCC3)n2)cc1
MIC (Staphylococcus aureus [4]): 25 µg/mL | MIC (Escherichia coli [6]): 25 µg/mL | CC50 at 72 h [3]: 125 µg/mL (≈ 374 µM) | MIC (Escherichia coli [8]): 25 µg/mL | MIC (Staphylococcus aureus [9]): 100 µg/mL

O=C(O)C1=CC(C2CC2)C2=C(CC(F)C3=NN=C(c4ccc(Cl)cc4)CN32)C1=O (configuration not stated)
MIC (Escherichia coli [1]): 8 µg/mL (≈ 19.3 µM) | MIC (Staphylococcus aureus [2]): 8 µg/mL (≈ 19.3 µM)

Cc1ccc(C2=NN=C3C(F)CC4=C(C(C5CC5)C=C(C(=O)O)C4=O)N3C2)cc1 (configuration not stated)
MIC (Escherichia coli [1]): 0.25 µg/mL (≈ 0.635 µM) | MIC (Staphylococcus aureus [2]): 0.5 µg/mL (≈ 1.27 µM)

CC1(C)S[C@@H]2[C@H](NC(=O)[C@H](N)c3ccccc3)C(=O)N2[C@H]1C(=O)O.O.O.O [AMPICILLIN TRIHYDRATE]
MIC (Staphylococcus aureus [4]): 12.5 µg/mL | MIC (Escherichia coli [6]): 25 µg/mL

C[C@H]1COc2c(N3CCN(C)CC3)c(F)cc3c(=O)c(C(=O)O)cn1c23.C[C@H]1COc2c(N3CCN(C)CC3)c(F)cc3c(=O)c(C(=O)O)cn1c23.O [LEVOFLOXACIN]
zone of inhibition at 5 µg/disc (Bacillus subtilis [11]): 14 to 15 mm | MIC (Bacillus subtilis [15]): 3.12 µg/mL | MIC (Escherichia coli [16]): 3.12 µg/mL | zone of inhibition at 5 µg/disc (Staphylococcus aureus [13]): 14 to 15 mm

O=[N+]([O-])c1ccc(Nc2nc(Nc3ccc([N+](=O)[O-])cc3)nc(N3CCN(C(=S)Nc4ccnc5cc(Cl)ccc45)CC3)n2)cc1
zone of inhibition at 5 µg/disc (Bacillus subtilis [11]): 16 to 17 mm | zone of inhibition at 5 µg/disc (Bacillus cereus): 9 to 17 mm | zone of inhibition at 5 µg/disc (Pseudomonas aeruginosa [12]): 9 to 17 mm | zone of inhibition at 5 µg/disc (Staphylococcus aureus [13]): 16 to 17 mm

O=[N+]([O-])c1cccc(Nc2nc(NC3=NC(c4ccccc4O)=CC(c4ccccc4[N+](=O)[O-])S3)nc(Nc3cccc([N+](=O)[O-])c3)n2)c1 (configuration not stated)
MIC (Bacillus subtilis [15]): 6.25 µg/mL | MIC (Escherichia coli [16]): 12.5 µg/mL

Nc1nc(Nc2ccccc2)nc(Nc2nc(-c3ccc(Cl)cc3)cs2)n1
MIC (Lacticaseibacillus casei): 3.12 µg/mL

Nc1nc(N)nc(Nc2ccc(C(=O)N/N=C/c3ccco3)cc2)n1
MIC (Staphylococcus aureus [5]): 3.12 µg/mL | CC50 at 72 h [3]: 125 µg/mL (≈ 369 µM) | MIC (Klebsiella pneumoniae): 12.5 µg/mL

O=[N+]([O-])c1ccc(-c2csc(Nc3nc(N4CCOCC4)nc(N4CCOCC4)n3)n2)cc1
MIC (Aspergillus niger): 0.63 to 5 µg/mL (≈ 1.34 to 10.6 µM) | MIC (Cryptococcus neoformans): 0.63 to 5 µg/mL (≈ 1.34 to 10.6 µM) | MIC (Candida albicans): 0.63 to 5 µg/mL (≈ 1.34 to 10.6 µM) | MIC (Nakaseomyces glabratus): 0.63 to 5 µg/mL (≈ 1.34 to 10.6 µM)

O=C(CNc1nc(NCC(=O)N/N=C/c2ccc(Cl)cc2)nc(N2CCN(c3nc(NCC(=O)N/N=C/c4ccc(Cl)cc4)nc(NCC(=O)N/N=C/c4ccc(Cl)cc4)n3)CC2)n1)N/N=C/c1ccc(Cl)cc1
MIC (Staphylococcus aureus [4]): 12.5 to 25 µg/mL | MIC (Escherichia coli [6]): 12.5 to 25 µg/mL

CN[C@@H]1[C@H](O[C@H]2[C@H](O[C@H]3[C@H](O)[C@@H](O)[C@H](N=C(N)N)[C@@H](O)[C@@H]3N=C(N)N)O[C@@H](C)[C@]2(O)C=O)O[C@@H](CO)[C@H](O)[C@H]1O [STREPTOMYCIN]
MIC (Lacticaseibacillus casei): 12.5 µg/mL
